Data: publication PMC12563652 (International Journal of Molecular Sciences, 2025)

Assays:
C57BL/6 mice = experiment: Inhibition of gastric emptying (mouse model, phenol red); type: in vivo; details: 5 mg/kg b.w. alone
Experimental: Fifty male C57BL/6 mice (22–27 g) were housed in standard cages while maintaining a 12:12-h light/dark cycle, with food and water available ad libitum. The experimental procedures were performed from 10:00 a.m. to 14:00 p.m.
The experiment was conducted according to Miyasaka et al. and Kotańska et al., with some minor modifications. Mice were subjected to a 20 h food deprivation and a 2 h water deprivation prior to testing. The animals received a vehicle (0.25 mL/mouse) alone or along with various compounds: JP-14 (10 mg/kg b. w.), RT (5 mg/kg body weight), metformin (100 mg/kg b. w.), or loperamide (reference compound; 10 mg/kg b. w.) via gastric gavage. Following a 45 min interval, phenol red (0.5 mL, 0.05% w/v) combined with glucose (1 g/kg body weight) was administered through the same route. Additionally, each group received an intraperitoneal injection of heparin (2500 U/mouse) 20 min prior to the collection of stomach contents. Seven mice treated with the vehicle were sacrificed immediately after the phenol red administration to serve as a standard control (representing 100% phenol red in the stomach at 0 min), establishing a baseline for maximum absorbance (100%). The leftover mice were sacrificed 30 min later. The stomachs were removed and homogenized using an OMNI homogenizer (OMNI International Company, Kennesaw, GA, USA), with 10 mL of 0.1 N NaOH. To 5 mL of homogenate, 0.5 mL of 20% w/v solution of trichloroacetic acid was incorporated to precipitate the proteins. Subsequently, the samples were centrifuged at 600× g for 15 min at a temperature of 20 °C, and 0.25 mL of supernatant was mixed with 1 mL of 0.5 N NaOH to achieve maximum color intensity. The concentration of phenol red was measured using spectrophotometry, with absorbance evaluated at a wavelength of 560 nm (MuLTISKAN.GO, Thermo Fisher Scientific Inc., Waltham, MA USA). For each mouse, the percentage of gastric emptying (GE %) was calculated using the following equation:(1) GE%=(Ac0−Ab)/(Ac0−Ac30)×100% where: Ac0 is the absorbance of the control gastric sample collected immediately after dye administration, and Ac30 is the absorbance of the control gastric sample collected 30 min after dye administration, i.e., Ac0–Ac30 = 100% gastric emptying.

[1] = test system: platelet aggregation in rat whole blood; experiment: In vitro collagen-induced platelet aggregation in rat whole blood (impedance aggregometry); type: cell-based; details: 100 µM, collagen 1.6 µg/mL
Experimental: In vitro platelet aggregation assays were conducted using freshly collected whole blood from rats, utilizing the Multiplate platelet function analyzer (Roche Diagnostics, Mannheim, Germany)—a five-channel device that measures electrical impedance, following methods described previously. Upon stimulation, platelets adhere to and aggregate on dual metal sensors within the test cuvette, causing an increase in electrical resistance, which corresponds to the number of platelets attached to the electrodes.
Blood was collected from the carotid artery of the rat into tubes coated with hirudin (S-Monovette, Sarstedt, Germany). A volume of 300 μL of the anticoagulated blood was mixed with 300 μL of prewarmed isotonic saline that contained the test compound or a vehicle control (0.1% DMSO) and incubated at 37 °C for 3 min under continuous stirring. Aggregation was triggered by adding collagen (final concentration: 1.6 µg/mL). Platelet activity was monitored for 6 min. Multiplate V2.04 software calculated the area under the curve (AUC) for each measurement to determine average platelet response.

human TAAR1 = target: T1, human TAAR1 (Homo sapiens, UniProt Q96RJ0); experiment: TAAR1 antagonist activity, Hit Hunter cAMP assay; type: cell-based; details: n.a. = no activity at 10–5 M; read-out: TAAR1 Ant EC50
T1 sequence (Q96RJ0 1-339): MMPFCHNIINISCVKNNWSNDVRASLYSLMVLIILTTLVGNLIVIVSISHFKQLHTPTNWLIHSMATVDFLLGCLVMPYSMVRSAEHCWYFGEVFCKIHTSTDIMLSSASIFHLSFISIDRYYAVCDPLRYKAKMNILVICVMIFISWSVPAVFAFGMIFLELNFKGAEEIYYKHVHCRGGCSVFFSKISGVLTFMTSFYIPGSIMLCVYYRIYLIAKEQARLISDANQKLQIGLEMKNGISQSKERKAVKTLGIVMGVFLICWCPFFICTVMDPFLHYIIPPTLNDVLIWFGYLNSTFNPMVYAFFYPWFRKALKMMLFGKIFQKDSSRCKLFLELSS

HepG2 cells = experiment: Glucose consumption (Amplex Red assay) in HepG2 cells; type: cell-based, human; details: 10 µM; relative to vehicle-treated cells
Experimental: The HepG2 human hepatocellular carcinoma cell line (ATCC® HB-8065™) was cultured in DMEM supplemented with 10% FBS, 100 µg/mL streptomycin, and 100 IU/mL penicillin at 37 °C in 5% CO2. Cells were seeded in 96-well plates at a density of 10,000 cells/well and used for experiments 24 h after plating.
Stock solutions of test compounds were prepared at a concentration of 10 mM in dimethyl sulfoxide (DMSO). At least 1 mg of each substance was carefully measured and mixed with the right amount of DMSO. A series of dilutions were made in DMSO and then further diluted in phosphate-buffered saline before being introduced into the cell culture medium. Precipitation or opalescence was assessed prior to application.
The glucose uptake was measured with the Amplex® Red Glucose/Glucose Oxidase Assay Kit from Thermo Fisher Scientific, following the guidelines provided by the maker. Cell culture supernatants were collected and incubated with a reaction mix containing 100 μM Amplex® Red reagent, 0.2 U/mL horseradish peroxidase (HRP), and 1 U/mL glucose oxidase at room temperature for 30 min in the dark. Fluorescence was measured at 530 nm excitation and 590 nm emission using the POLARstar Omega plate reader (BMG Labtech).

N#Cc1c(C(F)(F)F)cc(-c2ccc(Cl)cc2)nc1SCC(=O)Nc1ncccn1 [RTI-7470-44]
effect on gastric emptying (C57BL/6 mice): did not affect emptying | reduction of collagen-induced platelet aggregation [1]: 41.75% | EC50 (human TAAR1): 168 ± 50.7 nM | increase in glucose consumption (uptake) (HepG2 cells): no significant changes
